Activity calls are given as the source filed them. The calls are words filed in the database; no cut-off is given here.
Columns and labels:
[1] = tested on: Hepatitis C virus; experiment: Antiviral activity against Hepatitis C virus genotype 1b infected in human HuH7 cells preincubated with cells for 3 days followed by viral infection by luciferase assay; format: functional, cell-based, Hepacivirus hominis
[2] = Cytotoxicity against human MT4 cells assessed as reduction in cell viability after 4 to 5 days by Cell-Titer Glo assay; format: cell-based; details: MT4 cells
[3] = Lipophilicity, log D of the compound after 30 mins by HPLC/UV method; format: physicochemical
[4] = tested on: Ebolavirus; experiment: Antiviral activity against Ebolavirus Kikwit infected in human HeLa cells assessed as reduction in viral glycoprotein levels preincubated with cells for 2 hrs followed by viral infection measured after 48 hrs by immunostaining based assay; format: functional, cell-based; details: Orthoebolavirus, Kikwit, HeLa
[5] = tested on: Human orthopneumovirus; experiment: Antiviral activity against Respiratory syncytial virus A2 infected in human Hep2 cells assessed as reduction of virus-induced cytopathic effect after 4 days by Cell-Titer Glo assay; format: functional, cell-based; details: human respiratory syncytial virus, A2, HEp-2, 96 h
[6] = tested on: Plasma; experiment: (§1) Half life in human plasma at 2 uM by LC/MS/MS analysis; format: ADME, cell-free; details: 2 µM
[7] = tested on: Huh-7; experiment: (§2) Cytotoxicity against human HuH7 cells assessed as reduction in cell viability after 3 days by calcein-AM dye based fluorescence assay; details: huh-7, 72 h, 72 h
[8] = tested on: Ebolavirus; experiment: Antiviral activity against Ebolavirus Kikwit infected in human macrophages preincubated with cells for 2 hrs followed by viral infection measured after 48 hrs; format: functional; details: Orthoebolavirus, Kikwit
[9] = tested on: Ebolavirus; experiment: Antiviral activity against GFP-fused Ebolavirus infected in TERT-immortalized HMVEC assessed as reduction in viral replication preincubated with cells followed by viral infection measured after 3 to 4 days by fluorescence assay; format: functional
[10] = Cytotoxicity against human Hep2 cells assessed as reduction in cell viability after 4 to 5 days by Cell-Titer Glo assay; format: cell-based, HEp-2; details: HEp-2 cells
[11] = as §2; design: species or system Huh-7; details: Huh-7 cells
[12] = as §1; format: ADME, cell-free
[13] = tested on: Ebolavirus; experiment: Antiviral activity against Ebolavirus infected in rhesus monkey assessed as reduction in systemic viremia at 3 mg/kg, iv qd administered continuously starting from day 2 post infection for 12 days; format: functional, organism-based
[14] = tested on: Ebolavirus; experiment: Antiviral activity against Ebolavirus in phase-1 acute meningoencephalytis patient assessed as viral clearance in plasma at 150 mg, iv qd administered daily for 2 days followed by 225 mg for 14 days; format: functional, organism-based
[15] = tested on: Ebolavirus; experiment: Antiviral activity against Ebolavirus in phase-1 acute meningoencephalytis patient assessed as viral clearance in CNS at 150 mg, iv qd administered daily for 2 days followed by 225 mg for 14 days; format: functional, organism-based
[16] = tested on: Ebolavirus; experiment: Antiviral activity against Ebolavirus infected in rhesus monkey assessed as increase in survival at 10 mg/kg, iv administered daily starting from day 3 post infection followed by 3 mg/kg for 11 days measured up to 28 days; format: functional, organism-based
[17] = tested on: Ebolavirus; experiment: Antiviral activity against Ebolavirus infected in newborn infant assessed as viral clearance; format: functional
[18] = Hepatitis C virus, genotype 1b, Huh-7

Row | Structure (SMILES) | CC50 [2] [µM] | logD at 0.5 h [3] | EC50 [4] [µM] | EC50 [5] [µM] | CC50 [10] [µM] | EC50 [1, 18] [µM] | CC50 at 72 h [11] [µM] | half-life at 2 µM [12] [h] | EC50 ([9]; Orthoebolavirus, HMVEC) [µM] | other results
1 | CCC(CC)COC(=O)[C@H](C)N[P@](=O)(OC[C@H]1O[C@@](C#N)(c2ccc3c(N)ncnn23)[C@H](O)[C@@H]1O)Oc1ccccc1 (mixture of isomers) | 2 | 2.1 | 0.17 | 0.027 | 9.2 |  |  |  |  | EC50 [1]: 0.023 µM; t1/2 [6]: 3.25 h; CC50 [7]: 17 µM; EC50 [8]: 0.1 µM; EC50 [9]: 0.12 µM
2 | C#C[C@@]1(c2ccc3c(N)ncnn23)O[C@H](CO)[C@@H](O)[C@H]1O | 120 |  |  | > 200 | > 200 | > 88 | > 88 |  |  | 
3 | C[C@H](NP(=O)(OC[C@H]1O[C@@](C#N)(c2ccc3c(N)ncnn23)[C@H](O)[C@@H]1O)Oc1ccccc1)C(=O)OC1CCCC1 (stereo not given in full) | 8.8 | 1.3 | 0.633 |  |  |  |  | 26.3 | 0.16 | EC50 [8]: 0.12 µM
4 | CCOC(=O)[C@H](Cc1ccccc1)NP(=O)(OC[C@H]1O[C@@](C#N)(c2ccc3c(N)ncnn23)[C@H](O)[C@@H]1O)Oc1ccccc1 (stereo not given in full) | 15 | 1.6 | 4.38 |  |  |  |  | 26.4 | 0.587 | EC50 [8]: 0.27 µM
5 | CCOC(=O)[C@H](C)NP(=O)(OC[C@H]1O[C@@](C#N)(c2ccc3c(N)ncnn23)[C@H](O)[C@@H]1O)Oc1ccccc1 (stereo not given in full) | 13 | 0.6 | 2.43 |  |  |  |  | 26.4 | 0.636 | 
6 | C[C@H](NP(=O)(OC[C@H]1O[C@@](C#N)(c2ccc3c(N)ncnn23)[C@H](O)[C@@H]1O)Oc1ccccc1)C(=O)OC1CCC1 (stereo not given in full) | 6 | 1.1 | 0.42 |  |  |  |  | 13.6 | 0.088 | 
7 | C[C@@]1(c2ccc3c(N)ncnn23)O[C@H](CO)[C@@H](O)[C@H]1O | 4.5 |  |  | 5.5 | 93 | 38 | 62 |  | > 10 | 
8 | C#C[C@@]1(c2ccc3c(N)ncnn23)O[C@H](COP(=O)(N[C@@H](C)C(=O)OCC(CC)CC)Oc2ccccc2)[C@@H](O)[C@H]1O (stereo not given in full) | > 32 |  |  | 1.1 | > 100 | 6.9 | > 44 |  | 3.9 | 
9 | N#C[C@@]1(n2cnc3c(N)ncnc32)O[C@H](CO)[C@@H](O)[C@H]1O | > 53 |  |  | > 100 | > 100 | > 44 | > 88 |  | 56 | 
10 | C[C@H](NP(=O)(OC[C@H]1O[C@@](C#N)(c2ccc3c(N)ncnn23)[C@H](O)[C@@H]1O)Oc1ccccc1)C(=O)OC(C)(C)C (stereo not given in full) | > 100 | 1.3 | 30.4 |  |  |  |  | 26.4 | 3.79 | 
11 | N#C[C@@]1(n2ccc(N)nc2=O)O[C@H](CO)[C@@H](O)[C@H]1O | > 57 |  | > 50 | 7.3 | > 100 | 12 | > 44 |  | > 10 | 
12 | CCC(CC)COC(=O)[C@H](C)N[P@@](=O)(OC[C@H]1O[C@@](C#N)(c2ccc3c(N)ncnn23)[C@H](O)[C@@H]1O)Oc1ccccc1 |  | 2 | 0.08 |  |  |  |  |  | 0.053 | EC50 [8]: 0.111 µM
13 | N#C[C@@]1(c2ccc3c(N)ncnn23)O[C@H](CO)[C@@H](O)[C@H]1O [GS-441524] | > 57 | 0.3 | > 20 | 0.53 | > 100 |  | > 88 |  | 0.78 | EC50 [8]: > 20 µM
14 | CC(C)OC(=O)[C@H](C)N[P@](=O)(OC[C@H]1O[C@@](C#N)(c2ccc3c(N)ncnn23)[C@](C)(O)[C@@H]1OC(=O)C(C)C)Oc1ccccc1 [GS-6620] | 7.8 |  | > 20 | > 20 | 95 | 0.31 | 51 |  | 40 | 
15 | C[C@H](N[P@](=O)(OC[C@H]1O[C@@](C#N)(c2ccc3c(N)ncnn23)[C@H](O)[C@@H]1O)Oc1ccccc1)C(=O)OCC(C)(C)C | 3 | 1.7 | 0.168 |  |  |  |  | 11.7 | 0.092 | 
16 | C[C@@]1(O)[C@H](O)[C@@H](CO)O[C@@]1(C#N)c1ccc2c(N)ncnn12 | > 57 |  | 50 | > 100 | > 100 | > 44 | > 44 |  | > 10 | 
17 | CCOC(=O)[C@H](C)NP(=O)(N[C@@H](C)C(=O)OCC)OC[C@H]1O[C@@](C#N)(c2ccc3c(N)ncnn23)[C@H](O)[C@@H]1O | > 53 | < 0.3 | 20.4 |  |  |  |  |  | 9.1 | 
18 | N#C[C@@]1(c2ccc3c(N)ncnn23)O[C@H](CO)[C@@H](O)[C@H]1F | 32 |  |  | > 100 |  | > 44 | > 44 |  |  | 
19 | Nc1ncnn2c([C@@H]3O[C@H](CO)[C@@H](O)[C@H]3O)ccc12 | < 0.01 |  |  |  | 0.038 | 0.0035 | 0.15 |  |  | 
20 | CCC(CC)OC(=O)[C@H](C)NP(=O)(OC[C@H]1O[C@@](C#N)(c2ccc3c(N)ncnn23)[C@H](O)[C@@H]1O)Oc1ccccc1 (stereo not given in full) | > 100 | 1.6 | 1.81 |  |  |  |  | 14.3 | 0.845 | 
21 | CCOC(=O)[C@@H](NP(=O)(OC[C@H]1O[C@@](C#N)(c2ccc3c(N)ncnn23)[C@H](O)[C@@H]1O)Oc1ccccc1)C(C)C (stereo not given in full) | > 100 | 1.2 | 7.04 |  |  |  |  | 26.4 | 3.15 | 
22 | CC(C)OC(=O)[C@H](C)NP(=O)(OC[C@H]1O[C@@](C#N)(n2ccc(N)nc2=O)[C@H](O)[C@@H]1O)Oc1ccccc1 (stereo not given in full) | 53 |  | > 20 | 63 | > 100 | 2.5 | > 44 |  |  | 
23 | CCC(CC)COC(=O)[C@H](C)NP(=O)(OC[C@H]1O[C@@](C#N)(c2ccc3c(N)ncnn23)[C@](C)(O)[C@@H]1O)Oc1ccccc1 (stereo not given in full) | 1.4 |  | 27 | > 50 | > 50 | 0.37 | > 44 |  | 13 | 
24 | CC(C)OC(=O)[C@H](C)N[P@@](=O)(OC[C@H]1O[C@@](C#N)(c2ccc3c(N)ncnn23)[C@H](O)[C@@H]1O)Oc1ccccc1 | 21 | 1.1 | 1.84 |  |  |  |  | 26 | 0.367 | EC50 [8]: 0.297 µM
25 | CCC(CC)COC(=O)[C@H](C)N[P@](=O)(OC[C@H]1O[C@@](C#N)(c2ccc3c(N)ncnn23)[C@H](O)[C@@H]1O)Oc1ccccc1 |  |  |  |  |  |  |  |  |  | Activity [13]: Active; Activity [14]: Active; Activity [15]: Active; Activity [16]: Active; Activity [17]: Active
26 | CCC(CC)COC(=O)[C@@H](C)NP(=O)(OC[C@H]1O[C@@](C#N)(c2ccc3c(N)ncnn23)[C@H](O)[C@@H]1O)Oc1ccccc1 (stereo not given in full) | 42 | 2.1 | 0.55 |  |  |  |  | 26.4 | 0.518 | EC50 [8]: 0.729 µM

From ChEMBL document CHEMBL4007399, “Discovery and Synthesis of a Phosphoramidate Prodrug of a Pyrrolo[2,1-f][triazin-4-amino] Adenine C-Nucleoside (GS-5734) for the Treatment of Ebola and Emerging Viruses” (J Med Chem, 2017)
